From patent publication US9709886B2, “Sulfonic acid derivative compounds as photoacid generators in resist applications” (Heraeus Precious Metals North America Daychem LLC, priority 2015, dated 2017)

How the values were obtained:
Format in all cases: physicochemical
[1] = Solubility of PAG in organic solvents at 20° C.; conditions: for Solubility (w/w%) PGMEA: Propylene glycol monomethyl ether acetate; for Solubility (w/w%) GBL: γ-Butyrolactone; for solubility in the tested solvents: PGMEA, GBL; for Solubility (w/w%) Cyclohexanone / solubility in the tested solvents: cyclohexanone
Excerpt: Solubility is an important factor in the evaluation of a PAG. High solubility not only makes a PAG purified readily but also enables a PAG to be used for a wide range of concentrations in photoresists and in varied solvent systems. To test the solubility of a PAG, a solvent is slowly added until the PAG is completely dissolved and no turbidity is observed in the clear solution. Table 8 lists the solubility (w/w %) of some representative N-hydroxynaphthalimide sulfonate derivatives versus NIT in various organic solvents at 20° C.

[2] = Solubility of PAG in organic solvents at 20° C.; conditions: Table 9; Propylene glycol monomethyl ether acetate
[3] = Photolysis of PAGs in acetonitrile, irradiation at 365 nm (photoreactivity); conditions: for Solubility × Photoreactivity: solubility in PGMEA times relative photoreactivity at 365 nm
Excerpt: A photoresist composition typically comprises PAG, polymers, additives and solvents. The performance of a photoresist composition is mainly dependent on the properties of the PAG and polymer components. To formulate a high-performance photoresist composition, more photosensitive PAGs are typically selected. The photosensitivity of a PAG is typically directly related to the strength of the generated acid and the photoreactivity of the PAG. For a series of PAGs producing the same latent acid, their photosensitivity is related only to their photoreactivity. Thus evaluating the photosensitivity of a PAG can be achieved by studying its photoreactivity. The higher photoreactivity, the higher photosensitivity. The photoreactivity can be investigated by photolysis of a PAG in its dilute solution under low exposure intensity (to avoid side reactions which don't generate the desired acid). The change in the concentration of a PAG upon irradiation can be determined by measuring the absorbance of the PAG at the maximum absorption wavelength.
(§1) Photolysis of PAGs was carried out in acetonitrile in air at room temperature. The sodium salt of tetrabromophenol blue (TBPBNa), an acid indicator dye, which has a maximum absorption at 618 nm, was purchased from Aldrich (indicator grade) and used as received. Irradiation of the solution of the PAGs (3×10^−5 M) was performed using a Cole-Parmer UV 15 W bench lamp (EW-97605-50) at 365 nm. Light intensity was measured using an UV Power Puck II radiometer from EIT Inc. UV-Vis spectra were run on a Thermo Scientific Evolution 201 UV-visible spectrophotometer.
Photolysis of NIT, comparative compound A and B, T1, T2, T3, and T5 was examined in acetonitrile. […] The absorption band at 362 nm (λmax) gradually decreases upon irradiation, indicating the progress of photoreaction with the increase of exposure dose of energy. Assuming the photoreaction is first-order, a plot of the natural log of changes in absorbance with exposure dose of energy gives the photoreaction constant of T3 (i.e., the slope of the linear trendline) (FIG. 2). The photoreaction constants of other compounds were similarly determined under the same irradiation condition. Comparing the constants of A, B, T1, T2, T3, and T5 with that of NIT normalized to one gives the relative photoreactivity (Table 9). […] The formation of acid upon irradiation was confirmed by observing the spectral changes of the acid indicator, TBPBNa at 618 nm.

UV-Vis spectra in ACN = conditions: FIG. 4, in ACN (0.001% w/v)
Experimental: FIG. 4 is a UV-Vis spectra of compounds NIT, T1, T2 and T5 in ACN (0.001% w/v).
as §1

| SMILES | Solubility (w/w%) PGMEA [1] | Solubility (w/w%) Cyclohexanone [1] | Solubility (w/w%) GBL [1] | Solubility (w/w%) in PGMEA [2] | Solubility × Photoreactivity [3] | absorbance at i-line of a mercury lamp versus NIT (UV-Vis spectra in ACN) | absorption maximum (UV-Vis spectra in ACN) | solubility in the tested solvents [1] | absorption band (λmax) ([3]; FIG. 1, acetonitrile, before irradiation at 365 nm) |
| --- | --- | --- | --- | --- | --- | --- | --- | --- | --- |
| O=C1c2cccc3c(C#Cc4ccccc4)ccc(c23)C(=O)N1OS(=O)(=O)C(F)(F)F [A, reference compound] | 1.0% w/w% | 3.5% w/w% | 0.9% w/w% | 1.0% w/w% | 2.5% |  |  |  |  |
| CCCCC#Cc1ccc2c3c(cccc13)C(=O)N(OS(=O)(=O)C(F)(F)F)C2=O [B, reference compound] | 6.1% w/w% | 11.5% w/w% | 2.3% w/w% | 6.1% w/w% | 48.8% |  |  |  |  |
| CCCCC#Cc1ccc2c3c(cccc13)C(=O)N(OS(=O)(=O)C(F)(F)C(F)(F)C(F)(F)C(F)(F)F)C2=O [Compound T1] | 8.3% w/w% | 19.7% w/w% | 1.5% w/w% | 8.3% w/w% | 77.2% | much larger than that of NIT | 362 nm |  |  |
| CCCCCCC#Cc1ccc2c3c(cccc13)C(=O)N(OS(=O)(=O)C(F)(F)F)C2=O [Compound T2] | 45.8% w/w% | 52.4% w/w% | 23.1% w/w% | 45.8% w/w% | 394% | much larger than that of NIT | 362 nm | extremely high solubility |  |
| CCCCCCC#Cc1ccc2c3c(cccc13)C(=O)N(OS(=O)(=O)C(F)(F)C(F)(F)C(F)(F)C(F)(F)F)C2=O [Compound T3] | 20.6% w/w% | 42.0% w/w% | 2.2% w/w% | 20.6% w/w% | 198% |  |  |  | 362 nm |
| CCCC(=O)OCC#Cc1ccc2c3c(cccc13)C(=O)N(OS(=O)(=O)C(F)(F)F)C2=O [Compound T5] | 50.1% w/w% | 55.4% w/w% | 32.4% w/w% | 50.1% w/w% | 200% | much larger than that of NIT | 353 nm | extremely high solubility |  |
| O=C1c2cccc3cccc(c23)C(=O)N1OS(=O)(=O)C(F)(F)F [NIT, N-Hydroxynaphthalimide triflate, reference compound] | 1.7% w/w% | 5.9% w/w% | 2.2% w/w% | 1.7% w/w% | 1.7% |  |  |  |  |
